# Laboratory results taken from ChEMBL document CHEMBL4715829, “Heterodimeric Rifampicin-Tobramycin conjugates break intrinsic resistance of Pseudomonas aeruginosa to doxycycline and chloramphenicol in vitro and in a Galleria mellonella in vivo model” (Eur J Med Chem, 2019).
# Legend:
# Pseudomonas aeruginosa [1] = assay: Antibacterial activity against Pseudomonas aeruginosa PAO1 assessed as fractional inhibitory concentration index in presence of Colistin incubated for 18 hrs by broth microdilution assay based checkerboard assay; format: functional
# Pseudomonas aeruginosa [2] = assay: Antibacterial activity against Pseudomonas aeruginosa 100036 assessed as reduction in bacterial growth incubated for 18 hrs by broth microdilution assay; format: functional
# Pseudomonas aeruginosa [3] = assay: Antibacterial activity against Pseudomonas aeruginosa 200 harboring efflux mutant assessed as reduction in bacterial growth incubated for 18 hrs by broth microdilution assay; format: functional
# Pseudomonas aeruginosa [4] = assay: Antibacterial activity against Pseudomonas aeruginosa PAO1 assessed as reduction in bacterial growth by measuring trimethoprim MIC at <=10 uM in presence of trimethoprim incubated for 18 hrs by broth microdilution assay based checkerboard assay (reference value: 64 microg/ml); format: functional; conditions: dose microM <=10
# [5] = test system: Staphylococcus epidermidis; assay: Antibacterial activity against methicillin-susceptible Staphylococcus epidermidis CANWARD 81388 assessed as reduction in bacterial growth incubated for 18 hrs by broth microdilution assay; format: functional
# Pseudomonas aeruginosa [6] = assay: Antibacterial activity against Pseudomonas aeruginosa PAO1 assessed as fractional inhibitory concentration index in presence of Meropenem incubated for 18 hrs by broth microdilution assay based checkerboard assay; format: functional
# Pseudomonas aeruginosa [7] = assay: Antibacterial activity against Pseudomonas aeruginosa PAO1 assessed as reduction in bacterial growth by measuring pleuromutilin MIC at <=10 uM in presence of pleuromutilin incubated for 18 hrs by broth microdilution assay based checkerboard assay (reference value: 512 microg/ml); format: functional; conditions: dose microM <=10
# Staphylococcus aureus = assay: Antibacterial activity against Staphylococcus aureus ATCC 29213 assessed as reduction in bacterial growth incubated for 18 hrs by broth microdilution assay; format: functional
# Pseudomonas aeruginosa [8] = assay: Antibacterial activity against Pseudomonas aeruginosa PAO1 assessed as fractional inhibitory concentration index in presence of Novobiocin incubated for 18 hrs by broth microdilution assay based checkerboard assay; format: functional
# Pseudomonas aeruginosa [9] = assay: Antibacterial activity against Pseudomonas aeruginosa PAO1 assessed as fractional inhibitory concentration index in presence of Rifampicin incubated for 18 hrs by broth microdilution assay based checkerboard assay; format: functional
# Pseudomonas aeruginosa [10] = assay: Antibacterial activity against Pseudomonas aeruginosa PAO1 assessed as reduction in bacterial growth by measuring clindamycin MIC at <=10 uM in presence of clindamycin incubated for 18 hrs by broth microdilution assay based checkerboard assay (reference value: 1024 microg/ml); format: functional; conditions: dose microM <=10
# Pseudomonas aeruginosa [11] = assay: Antibacterial activity against Pseudomonas aeruginosa PAO1 assessed as reduction in bacterial growth by measuring colistin MIC at <=10 uM in presence of colistin incubated for 18 hrs by broth microdilution assay based checkerboard assay (reference value: 1 microg/ml); format: functional; conditions: dose microM <=10
# Pseudomonas aeruginosa [12] = assay: Antibacterial activity against Pseudomonas aeruginosa PAO1 assessed as fractional inhibitory concentration index in presence of Minocycline incubated for 18 hrs by broth microdilution assay based checkerboard assay; format: functional
# Pseudomonas aeruginosa [13] = assay: Antibacterial activity against Pseudomonas aeruginosa 101885 assessed as reduction in bacterial growth incubated for 18 hrs by broth microdilution assay; format: functional
# Pseudomonas aeruginosa [14] = assay: Antibacterial activity against Pseudomonas aeruginosa 264-101354 assessed as fractional inhibitory concentration incubated for 18 hrs in presence of doxycycline by broth microdilution assay; format: functional
# Pseudomonas aeruginosa [15] = assay: Antibacterial activity against Pseudomonas aeruginosa 262-101856 assessed as fractional inhibitory concentration incubated for 18 hrs in presence of doxycycline by broth microdilution assay; format: functional
# Pseudomonas aeruginosa [16] = assay: Antibacterial activity against Pseudomonas aeruginosa 101243 assessed as fractional inhibitory concentration incubated for 18 hrs in presence of doxycycline by broth microdilution assay; format: functional
# Pseudomonas aeruginosa [17] = assay: Antibacterial activity against Pseudomonas aeruginosa 262-101856 assessed as fractional inhibitory concentration incubated for 18 hrs in presence of chloramphenicol by broth microdilution assay; format: functional
# Pseudomonas aeruginosa [18] = assay: Antibacterial activity against Pseudomonas aeruginosa 100036 assessed as fractional inhibitory concentration incubated for 18 hrs in presence of doxycycline by broth microdilution assay; format: functional
# Pseudomonas aeruginosa [19] = assay: Antibacterial activity against Pseudomonas aeruginosa 264-101354 assessed as fractional inhibitory concentration index in presence of chloramphenicol incubated for 18 hrs by broth microdilution assay; format: functional
# Pseudomonas aeruginosa [20] = assay: Antibacterial activity against Pseudomonas aeruginosa 101243 assessed as fractional inhibitory concentration incubated for 18 hrs in presence of chloramphenicol by broth microdilution assay; format: functional
# Enterobacter cloacae [21] = assay: Antibacterial activity against Enterobacter cloacae ATCC 117029 assessed as fractional inhibitory concentration index in presence of doxycycline incubated for 18 hrs by broth microdilution assay; format: functional
# Klebsiella pneumoniae [22] = assay: Antibacterial activity against Klebsiella pneumoniae ATCC 16381 assessed as fractional inhibitory concentration index in presence of doxycycline incubated for 18 hrs by broth microdilution assay; format: functional
# Acinetobacter baumannii [23] = assay: Antibacterial activity against Acinetobacter baumannii ATCC 17978 assessed as fractional inhibitory concentration index in presence of doxycycline incubated for 18 hrs by broth microdilution assay; format: functional
# Acinetobacter baumannii [24] = assay: Antibacterial activity against Acinetobacter baumannii ATCC 17978 assessed as potentiation of doxycycline-induced antibacterial activity by measuring doxycycline MIC at 10 uM incubated for 18 hrs in presence of doxycycline by broth microdilution assay (reference value: 0.25 ug/ml); format: functional
# Enterobacter cloacae [25] = assay: Antibacterial activity against Enterobacter cloacae ATCC 117029 assessed as fractional inhibitory concentration index in presence of chloramphenicol incubated for 18 hrs by broth microdilution assay; format: functional
# Acinetobacter baumannii [26] = assay: Antibacterial activity against Acinetobacter baumannii ATCC 17978 assessed as fractional inhibitory concentration index in presence of chloramphenicol incubated for 18 hrs by broth microdilution assay; format: functional
# Pseudomonas aeruginosa [27] = assay: Antibacterial activity against Pseudomonas aeruginosa 260-97103 assessed as fractional inhibitory concentration index in presence of doxycycline incubated for 18 hrs by broth microdilution assay; format: functional
# Enterobacter cloacae [28] = assay: Antibacterial activity against Enterobacter cloacae ATCC 117029 assessed as potentiation of chloramphenicol-induced antibacterial activity by measuring chloramphenicol MIC at 10 uM incubated for 18 hrs in presence of chloramphenicol by broth microdilution assay (reference value: 8 ug/ml); format: functional
# Pseudomonas aeruginosa [29] = assay: Antibacterial activity against Pseudomonas aeruginosa 91433 assessed as fractional inhibitory concentration index in presence of doxycycline incubated for 18 hrs by broth microdilution assay; format: functional
# Pseudomonas aeruginosa [30] = assay: Antibacterial activity against Pseudomonas aeruginosa 101885 assessed as fractional inhibitory concentration index in presence of doxycycline incubated for 18 hrs by broth microdilution assay; format: functional
# Pseudomonas aeruginosa [31] = assay: Potentiation of chloramphenicol-induced antibacterial activity against Pseudomonas aeruginosa 260-97103 incubated for 18 hrs in presence of chloramphenicol by broth microdilution assay; format: functional, organism-based; conditions: dose 1-32 µg/ml
# Pseudomonas aeruginosa [32] = assay: Antibacterial activity against Pseudomonas aeruginosa 114228 assessed as fractional inhibitory concentration index in presence of doxycycline incubated for 18 hrs by broth microdilution assay; format: functional
# Pseudomonas aeruginosa [33] = assay: Antibacterial activity against Pseudomonas aeruginosa 114228 assessed as fractional inhibitory concentration index in presence of chloramphenicol incubated for 18 hrs by broth microdilution assay; format: functional
# Klebsiella pneumoniae [34] = assay: Antibacterial activity against Klebsiella pneumoniae ATCC 16381 assessed as potentiation of chloramphenicol-induced antibacterial activity by measuring chloramphenicol MIC at 10 uM incubated for 18 hrs in presence of chloramphenicol by broth microdilution assay (reference value: 1024 ug/ml); format: functional
# Pseudomonas aeruginosa [35] = assay: Potentiation of chloramphenicol-induced antibacterial activity against Pseudomonas aeruginosa 264-101354 incubated for 18 hrs in presence of chloramphenicol by broth microdilution assay; format: functional, organism-based; conditions: dose 1-32 µg/ml
SMILES,fractional inhibitory concentration index (FICI) (Pseudomonas aeruginosa [1]),MIC (Pseudomonas aeruginosa [2]) [µg/mL],MIC (Pseudomonas aeruginosa [3]) [µg/mL],MIC (Pseudomonas aeruginosa [4]) [µg/mL],MIC [5] [µg/mL],fractional inhibitory concentration index (FICI) (Pseudomonas aeruginosa [6]),MIC (Pseudomonas aeruginosa [7]) [µg/mL],MIC (Staphylococcus aureus) [µg/mL],fractional inhibitory concentration index (FICI) (Pseudomonas aeruginosa [8]),fractional inhibitory concentration index (FICI) (Pseudomonas aeruginosa [9]),MIC (Pseudomonas aeruginosa [10]) [µg/mL],MIC (Pseudomonas aeruginosa [11]) [µg/mL],fractional inhibitory concentration index (FICI) (Pseudomonas aeruginosa [12]),MIC (Pseudomonas aeruginosa [13]) [µg/mL],fractional inhibitory concentration index (FICI) (Pseudomonas aeruginosa [19]),fractional inhibitory concentration index (FICI) (Enterobacter cloacae [21]),fractional inhibitory concentration index (FICI) (Klebsiella pneumoniae [22]),fractional inhibitory concentration index (FICI) (Acinetobacter baumannii [23]),MIC (Acinetobacter baumannii [24]) [µg/mL],fractional inhibitory concentration index (FICI) (Enterobacter cloacae [25]),also measured
CO[C@H]1/C=C/O[C@@]2(C)Oc3c(C)c(O)c4c(O)c(c(/C=N/N5CCN(Cc6cn(CCCCO[C@@H]7[C@@H](O[C@H]8O[C@H](CO)[C@@H](O)[C@H](N)[C@H]8O)[C@H](N)C[C@H](N)[C@H]7O[C@H]7O[C@H](CN)[C@@H](O)C[C@H]7N)nn6)CC5)c(O)c4c3C2=O)NC(=O)/C(C)=C\C=C\[C@H](C)[C@H](O)[C@@H](C)[C@@H](O)[C@@H](C)[C@H](OC(C)=O)[C@@H]1C.O=C(O)C(F)(F)F.O=C(O)C(F)(F)F.O=C(O)C(F)(F)F.O=C(O)C(F)(F)F.O=C(O)C(F)(F)F,0.53,> 256,256,64,2,1.03,512,4,0.53,0.28,512,0.5,0.26,256,–,–,–,–,–,–,–
CO[C@H]1/C=C/O[C@@]2(C)Oc3c(C)c(O)c4c(O)c(c(/C=N/N5CCN(C)CC5)c(O)c4c3C2=O)NC(=O)/C(C)=C\C=C\[C@H](C)[C@H](O)[C@@H](C)[C@@H](O)[C@@H](C)[C@H](OC(C)=O)[C@@H]1C [RIFAMPIN],–,32,16,–,≤ 0.25,–,–,≤ 0.25,–,–,–,–,–,32,1.5,–,–,–,–,–,FIC (Pseudomonas aeruginosa [14]): 0.25; FIC (Pseudomonas aeruginosa [15]): 0.5; FIC (Pseudomonas aeruginosa [16]): 0.5; FIC (Pseudomonas aeruginosa [17]): 0.5; FIC (Pseudomonas aeruginosa [18]): 0.25; FIC (Pseudomonas aeruginosa [20]): 0.5
CO[C@H]1/C=C/O[C@@]2(C)Oc3c(C)c(O)c4c(O)c(c(/C=N/N5CCN(Cc6cn(CCCCCCO[C@@H]7[C@@H](O[C@H]8O[C@H](CO)[C@@H](O)[C@H](N)[C@H]8O)[C@H](N)C[C@H](N)[C@H]7O[C@H]7O[C@H](CN)[C@@H](O)C[C@H]7N)nn6)CC5)c(O)c4c3C2=O)NC(=O)/C(C)=C\C=C\[C@H](C)[C@H](O)[C@@H](C)[C@@H](O)[C@@H](C)[C@H](OC(C)=O)[C@@H]1C.Cl.Cl.Cl.Cl.Cl,0.53,256,128,32,4,1.03,128,16,0.28,0.28,256,0.5,0.28,256,0.063,0.5,<0.516,1.25,0.25,0.375,fractional inhibitory concentration index (FICI) (Acinetobacter baumannii [26]): 0.75; fractional inhibitory concentration index (FICI) (Pseudomonas aeruginosa [27]): <0.133; MIC (Enterobacter cloacae [28]): 1 µg/mL; fractional inhibitory concentration index (FICI) (Pseudomonas aeruginosa [29]): 0.25; fractional inhibitory concentration index (FICI) (Pseudomonas aeruginosa [30]): 0.078; Activity (Pseudomonas aeruginosa [31]): Dose-dependent effect; fractional inhibitory concentration index (FICI) (Pseudomonas aeruginosa [32]): <0.156; fractional inhibitory concentration index (FICI) (Pseudomonas aeruginosa [33]): <0.281; MIC (Klebsiella pneumoniae [34]): 256 µg/mL; Activity (Pseudomonas aeruginosa [35]): Dose-dependent effect
CO[C@H]1/C=C/O[C@@]2(C)Oc3c(C)c(O)c4c(O)c(c(/C=N/N5CCN(Cc6cn(CCCCCCCCCCCCO[C@@H]7[C@@H](O[C@H]8O[C@H](CO)[C@@H](O)[C@H](N)[C@H]8O)[C@H](N)C[C@H](N)[C@H]7O[C@H]7O[C@H](CN)[C@@H](O)C[C@H]7N)nn6)CC5)c(O)c4c3C2=O)NC(=O)/C(C)=C\C=C\[C@H](C)[C@H](O)[C@@H](C)[C@@H](O)[C@@H](C)[C@H](OC(C)=O)[C@@H]1C.O=C(O)C(F)(F)F.O=C(O)C(F)(F)F.O=C(O)C(F)(F)F.O=C(O)C(F)(F)F.O=C(O)C(F)(F)F,0.26,256,128,16,4,1.03,256,16,0.28,0.15,256,0.25,0.28,256,0.063,0.375,<0.516,1.25,0.25,0.375,fractional inhibitory concentration index (FICI) (Acinetobacter baumannii [26]): 0.75; fractional inhibitory concentration index (FICI) (Pseudomonas aeruginosa [27]): <0.133; MIC (Enterobacter cloacae [28]): 1 µg/mL; fractional inhibitory concentration index (FICI) (Pseudomonas aeruginosa [29]): 0.133; fractional inhibitory concentration index (FICI) (Pseudomonas aeruginosa [30]): 0.094; Activity (Pseudomonas aeruginosa [31]): Dose-dependent effect; fractional inhibitory concentration index (FICI) (Pseudomonas aeruginosa [32]): <0.187; fractional inhibitory concentration index (FICI) (Pseudomonas aeruginosa [33]): <0.156; MIC (Klebsiella pneumoniae [34]): 256 µg/mL; Activity (Pseudomonas aeruginosa [35]): Dose-dependent effect
